# Assay results as given in patent EP4763839A1 (Pamplona Therapeutics (Shenzhen) Co., Ltd., priority 2023, dated 2025).
# Structures can show the parent of a compound that is named as a salt.
# Biological target: T1, IRAK4 (Homo sapiens, UniProt Q9NWZ3)
# T1 sequence (Q9NWZ3 1-460): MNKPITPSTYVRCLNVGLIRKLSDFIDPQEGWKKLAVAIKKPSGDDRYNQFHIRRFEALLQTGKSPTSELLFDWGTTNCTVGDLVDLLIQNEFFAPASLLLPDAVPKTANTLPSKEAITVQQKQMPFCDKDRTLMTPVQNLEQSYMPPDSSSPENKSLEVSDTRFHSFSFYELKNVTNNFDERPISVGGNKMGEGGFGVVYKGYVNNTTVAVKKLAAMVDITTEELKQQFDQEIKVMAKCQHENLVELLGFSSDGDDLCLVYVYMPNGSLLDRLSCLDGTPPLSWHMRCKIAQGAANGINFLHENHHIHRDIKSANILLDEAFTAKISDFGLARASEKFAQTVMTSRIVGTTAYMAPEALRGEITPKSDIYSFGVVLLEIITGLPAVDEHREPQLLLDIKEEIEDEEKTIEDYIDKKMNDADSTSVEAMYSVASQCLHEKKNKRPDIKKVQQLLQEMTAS
# Assay: Degradation of IRAK4 in THP1 cells, Western blot
# Format: cell-based
# Set-up: Degradation of IRAK4 in THP1 by compound; host or cells: THP-1
# Settings: THP-1 cells, 24 hours of incubation; for DC50: IRAK4 protein by Western blot, read-out: DC50; for Dmax: maximum degradation rate, read-out: Dmax
# Protocol: After 24 hours of incubation, the cells were collected into 1.5 mL centrifuge tubes and centrifuged at 1,000 rpm for 5 minutes. […] The supernatants were collected, and the IRAK4 protein levels were respectively detected by Western blot (WB). The total protein concentration in the cell lysate supernatant was determined using a BCA protein quantification kit (NCM). Based on the total protein concentration detected by BCA, the samples were adjusted to 2 μg/μL using cell lysis buffer and 5×SDS-PAGE protein loading buffer (Beyotime), heated at 95°C for 5 minutes in a metal bath, and then placed on ice for an ice bath for 5 minutes before being used as the loading samples for Western blot analysis. Protein electrophoresis was performed using a 10% SDS-PAGE gel with a loading volume of 20 μL (total protein 40 μg) and Tris-SDS electrophoresis at a constant voltage of 80 V. After electrophoresis, the proteins on the gel were transferred to a 0.2 μm PVDF membrane (Immobilon) using a semi-dry transfer method at 0.5 A and 20 V for 60 minutes. After transfer, the membrane was placed in 5% skimmed milk and incubated at rt for 2 hours. After blocking, the PVDF membrane was incubated with primary antibody against IRAK4 (Abcam) at 4°C overnight. […] The color development and protein band imaging were performed using a chemiluminescence imaging system ([…] Technology Co., Ltd.). The protein bands were analyzed for grayscale values using Image J analysis software. The corrected grayscale values for each sample were calculated and then compared with those of the control group treated with DMSO alone to calculate the degradation rate.
structure (smiles),measurement,value
"NC(=O)c1nn(-c2ccc(N3CCN(C(=O)C4CCN(c5ccc(OC6CCC(=O)NC6=O)cn5)CC4)CC3)cc2)cc1NC(=O)c1cccc(C(F)(F)F)n1 (centres unmarked) [Compound A415, N-(3-Carbamoyl-1-(4-(4-(1-(5-((2,6-dioxopiperidin-3-yl)oxy)pyridin-2-yl)piperidine-4-carbonyl)piperazin-1-yl)phenyl)-1H-pyrazol-4-yl)-6-(trifluoromethyl)picolinamide]",DC50,< 100 nM
same,Dmax,> 60%
"Cn1c(=O)n(C2CCC(=O)NC2=O)c2cccc(N3CCN(C(=O)C4CCN(Cc5ccc(-n6cc(NC(=O)c7cccc(-c8ccn[nH]8)n7)c(S(N)(=O)=O)n6)cc5)CC4)CC3)c21 (centres unmarked) [Compound A332, N-(1-(4-((4-(4-(1-(2,6-Dioxopiperidin-3-yl)-3-methyl-2-oxo-2,3-dihydro-1H-benzo[d]imidazol-4-yl)piperazine-1-carbonyl)piperidin-1-yl)methyl)phenyl)-3-sulfamoyl-1H-pyrazol-4-yl)-6-(1H-pyrazol-5-yl)picolinamide]",DC50,< 100 nM
same,Dmax,> 60%
"COc1ccc(C(=O)N2CCC3(CC2)CC(Cc2ccc(-n4cc(NC(=O)c5cccc(C(F)(F)F)n5)c(C(N)=O)n4)cc2)C3)cc1N1CCC(=O)NC1=O [Compound A318, N-(3-Carbamoyl-1-(4-((7-(3-(2,4-dioxotetrahydropyrimidin-1(2H)-yl)-4-methoxybenzoyl)-7-azaspiro[3.5]nonan-2-yl)methyl)phenyl)-1H-pyrazol-4-yl)-6-(trifluoromethyl)picolinamide]",DC50,< 100 nM
same,Dmax,> 60%
"Cn1c(=O)n(C2CCC(=O)NC2=O)c2cccc(N3CCC4(CC3)CN(Cc3ccc(-n5cc(NC(=O)c6cccc(C(F)(F)F)n6)c(C(N)=O)n5)cc3)C4)c21 (centres unmarked) [Compound A319, N-(3-carbamoyl-1-(4-((7-(1-(2,6-dioxopiperidin-3-yl)-3-methyl-2-oxo-2,3-dihydro-1H-benzo [d]imidazol-4-yl)-2,7-diazaspiro[3.5]nonan-2-yl)methyl)phenyl)-1H-pyrazol-4-yl)-6-(trifluoromethyl)picolinamide]",DC50,100 to 1000 nM
same,Dmax,40 to 60%
"Cn1c(=O)n(C2CCC(=O)NC2=O)c2cccc(N3CCC4(CC3)CN(CCc3ccc(-n5cc(NC(=O)c6cccc(C(F)(F)F)n6)c(C(N)=O)n5)cc3)C4)c21 (centres unmarked) [Compound A316, N-(3-carbamoyl-1-(4-(2-(7-(1-(2,6-dioxopiperidin-3-yl)-3-methyl-2-oxo-2,3-dihydro-1H-benzo[d]imidazol-4-yl)-2,7-diazaspiro[3.5]nonan-2-yl)ethyl)phenyl)-1H-pyrazol-4-yl)-6-(trifluoromethyl)picolinamide]",DC50,< 100 nM
same,Dmax,> 60%
"CN(CCN1CC2CN(c3cccc4c3n(C)c(=O)n4C3CCC(=O)NC3=O)CC2C1)Cc1ccc(-n2cc(NC(=O)c3cccc(-c4ccn[nH]4)n3)c(S(N)(=O)=O)n2)cc1 (centres unmarked) [Compound A337, N-(1-(4-(((2-(5-(1-(2,6-Dioxopiperidin-3-yl)-3-methyl-2-oxo-2,3-dihydro-1H-benzo[d]imidazol-4-yl)hexahydropyrrolo[3,4-c]pyrrol-2(1H)-yl)ethyl)(methyl)amino)methyl)phenyl)-3-sulfamoyl-1H-pyrazol-4-yl)-6-(1H-pyrazol-5-yl)picolinamide]",DC50,< 100 nM
same,Dmax,> 60%
Cn1c(=O)n(C2CCC(=O)NC2=O)c2cccc(NCC3CCC4(CC3)CCN(C(=O)c3ccc(-n5cc(NC(=O)c6cccc(-c7ccn[nH]7)n6)c(S(N)(=O)=O)n5)cc3)CC4)c21 (centres unmarked) [Compound A330],DC50,< 100 nM
same,Dmax,> 60%
"NC(=O)c1cn(-c2ccc(N3CCN(C4CCN(c5ccc(NC6CCC(=O)NC6=O)cc5F)CC4)CC3)cc2)cc1NC(=O)c1cccc(C(F)(F)F)n1 (centres unmarked) [Compound A428, N-(4-Carbamoyl-1-(4-(4-(1-(4-((2,6-Dioxopiperidin-3-yl)amino)-2-fluorophenyl)piperidin-4-yl)piperazin-1-yl)phenyl)-1H-pyrrol-3-yl)-6-(trifluoromethyl)picolinamide]",DC50,< 100 nM
same,Dmax,> 60%
"CC(C)(O)c1nn(-c2ccc(N3CCN(CC4CCN(c5ccc(NC6CCC(=O)NC6=O)cc5F)CC4)CC3)cc2)cc1NC(=O)c1cncc(C#N)c1 (centres unmarked) [Compound A385, 5-Cyano-N-(1-(4-(4-((1-(4-((2,6-dioxopiperidin-3-yl)amino)-2-fluorophenyl)piperidin-4-yl)methyl)piperazin-1-yl)phenyl)-3-(2-hydroxypropan-2-yl)-1H-pyrazol-4-yl)nicotinamide]",DC50,> 1000 nM
same,Dmax,< 40%
Cn1c(=O)n(C2CCC(=O)NC2=O)c2cccc(C#CCOC3CN(C(=O)c4ccc(-n5cc(NC(=O)c6cccc(-c7ccn[nH]7)n6)c(S(N)(=O)=O)n5)cc4)C3)c21 (centres unmarked) [Compound A348],DC50,< 100 nM
same,Dmax,> 60%
Cn1c(=O)n(C2CCC(=O)NC2=O)c2cccc(N3CCC4(CC3)CC(NC(=O)c3ccc(-n5cc(NC(=O)c6cccc(C(F)(F)F)n6)c(C(N)=O)n5)cc3)C4)c21 (centres unmarked) [Compound A320],DC50,< 100 nM
same,Dmax,> 60%
NC(=O)c1nn(C2CCC(N3CCN(CC4CCN(c5ccc(NC6CCC(=O)NC6=O)cc5F)CC4)CC3)CC2)cc1NC(=O)c1cccc(C(F)(F)F)n1 (centres unmarked) [Compound A374],DC50,< 100 nM
same,Dmax,> 60%
"NC(=O)c1nn(-c2ccc(N3CCN(CC4CCN(c5ccc(OC6CCC(=O)NC6=O)cc5F)CC4)CC3)cc2)cc1NC(=O)c1cccc(C(F)(F)F)n1 (centres unmarked) [Compound A421, N-(3-Carbamoyl-1-(4-(4-((1-(4-((2,6-dioxopiperidin-3-yl)oxy)-2-fluorophenyl)piperidin-4-yl)methyl)piperazin-1-yl)phenyl)-1H-pyrazol-4-yl)-6-(trifluoromethyl)picolinamide]",DC50,< 100 nM
same,Dmax,> 60%
"NC(=O)c1nn(-c2ccc(N3CCN(C4CCN(c5ccc(NC6CCC(=O)NC6=O)cn5)CC4)CC3)cc2)cc1NC(=O)c1cccc(C(F)(F)F)n1 (centres unmarked) [Compound A432, N-(3-Carbamoyl-1-(4-(4-(1-(5-((2,6-Dioxopiperidin-3-yl)amino)pyridin-2-yl)piperidin-4-yl)piperazin-1-yl)phenyl)-1H-pyrazol-4-yl)-6-(trifluoromethyl)picolinamide]",DC50,100 to 1000 nM
same,Dmax,40 to 60%
"NC(=O)c1nn(-c2ccc(N3CCN(C4CCC5(CC4)CN(c4ccc(N6CCC(=O)NC6=O)cc4)C5)CC3)cc2)cc1NC(=O)c1cccc(C(F)(F)F)n1 [Compound A391, N-(3-Carbamoyl-1-(4-(4-(2-(4-(2,4-dioxotetrahydropyrimidin-1(2H)-yl)phenyl)-2-azaspiro[3.5]nonan-7-yl)piperazin-1-yl)phenyl)-1H-pyrazol-4-yl)-6-(trifluoromethyl)picolinamide]",DC50,< 100 nM
same,Dmax,> 60%
"Cn1c(=O)n(C2CCC(=O)NC2=O)c2cccc(N3CCC(CN4CCN(c5ccc(-n6cc(NC(=O)c7cccc(C(F)(F)F)n7)c(C(=O)NC7CC7)n6)cc5)CC4)CC3)c21 (centres unmarked) [Compound A369, N-{3-[(cyclopropylamino)carbonyl]-1-{4-[4-({1-[1-(2,6-dioxopiperidin-3-yl)-3-methyl-2-oxobenzo[d]imidazol-4-yl]piperidin-4-yl}methyl)piperazin-1-yl]phenyl}pyrazol-4-yl}-6-(trifluoromethyl)pyridine-2-carboxamide formate]",DC50,< 100 nM
same,Dmax,> 60%
"NC(=O)c1nn(C23CC(N4CCN(C5CCN(c6ccc(NC7CCC(=O)NC7=O)cc6F)CC5)CC4)(C2)C3)cc1NC(=O)c1cccc(C(F)(F)F)n1 (centres unmarked) [Compound A451, N-(3-Carbamoyl-1-(3-(4-(1-(4-((2,6-Dioxopiperidin-3-yl)amino)-2-fluorophenyl)piperidin-4-yl)piperazin-1-yl)bicyclo[1.1.1]pentan-1-yl)-1H-pyrazol-4-yl)-6-(trifluoromethyl)picolinamide]",DC50,< 100 nM
same,Dmax,> 60%
"NC(=O)c1nn(-c2ccc(N3CCN(CC4CCN(c5ccc(OC6CCC(=O)NC6=O)cn5)CC4)CC3)cc2)cc1NC(=O)c1cccc(C(F)(F)F)n1 (centres unmarked) [Compound A377, N-(3-Carbamoyl-1-(4-(4-((1-(5-((2,6-dioxopiperidin-3-yl)oxy)pyridin-2-yl)piperidin-4-yl)methyl)piperazin-1-yl)phenyl)-1H-pyrazol-4-yl)-6-(trifluoromethyl)picolinamide]",DC50,< 100 nM
same,Dmax,> 60%
Cn1c(=O)n(C2CCC(=O)NC2=O)c2cccc(NCCN3CC4(C3)CN(Cc3ccc(-n5cc(NC(=O)c6cccc(-c7ccn[nH]7)n6)c(S(N)(=O)=O)n5)cc3)C4)c21 (centres unmarked) [Compound A334],DC50,< 100 nM
same,Dmax,> 60%
